Measurements as given in patent US9340590B2 (priority 2011, dated 2016).
Read-outs that look alike come from different tables or passages of the source. Positions of bridges follow the written chain, without caps; N, C: chain ends. Residues, ends and D or L forms follow the SMILES beside them.

How the values were obtained:
Assay in all cases: cell-based
hNav1.5 [1] = target: T1, hNav1.5 (Homo sapiens, UniProt Q14524)
hNav1.5 [2] = target: T1, hNav1.5; remark: listed apart in the source
hNav1.3 = hNav1.3 (Homo sapiens, UniProt Q9NY46); conditions: IonWorks Quattro; clamped to −110 mV, depolarized to −10 mV, 5 min after compound; n=2; read-out: IWQ Use Nav1.3
hNav1.3, sequence (Q9NY46 whole entry, looked up): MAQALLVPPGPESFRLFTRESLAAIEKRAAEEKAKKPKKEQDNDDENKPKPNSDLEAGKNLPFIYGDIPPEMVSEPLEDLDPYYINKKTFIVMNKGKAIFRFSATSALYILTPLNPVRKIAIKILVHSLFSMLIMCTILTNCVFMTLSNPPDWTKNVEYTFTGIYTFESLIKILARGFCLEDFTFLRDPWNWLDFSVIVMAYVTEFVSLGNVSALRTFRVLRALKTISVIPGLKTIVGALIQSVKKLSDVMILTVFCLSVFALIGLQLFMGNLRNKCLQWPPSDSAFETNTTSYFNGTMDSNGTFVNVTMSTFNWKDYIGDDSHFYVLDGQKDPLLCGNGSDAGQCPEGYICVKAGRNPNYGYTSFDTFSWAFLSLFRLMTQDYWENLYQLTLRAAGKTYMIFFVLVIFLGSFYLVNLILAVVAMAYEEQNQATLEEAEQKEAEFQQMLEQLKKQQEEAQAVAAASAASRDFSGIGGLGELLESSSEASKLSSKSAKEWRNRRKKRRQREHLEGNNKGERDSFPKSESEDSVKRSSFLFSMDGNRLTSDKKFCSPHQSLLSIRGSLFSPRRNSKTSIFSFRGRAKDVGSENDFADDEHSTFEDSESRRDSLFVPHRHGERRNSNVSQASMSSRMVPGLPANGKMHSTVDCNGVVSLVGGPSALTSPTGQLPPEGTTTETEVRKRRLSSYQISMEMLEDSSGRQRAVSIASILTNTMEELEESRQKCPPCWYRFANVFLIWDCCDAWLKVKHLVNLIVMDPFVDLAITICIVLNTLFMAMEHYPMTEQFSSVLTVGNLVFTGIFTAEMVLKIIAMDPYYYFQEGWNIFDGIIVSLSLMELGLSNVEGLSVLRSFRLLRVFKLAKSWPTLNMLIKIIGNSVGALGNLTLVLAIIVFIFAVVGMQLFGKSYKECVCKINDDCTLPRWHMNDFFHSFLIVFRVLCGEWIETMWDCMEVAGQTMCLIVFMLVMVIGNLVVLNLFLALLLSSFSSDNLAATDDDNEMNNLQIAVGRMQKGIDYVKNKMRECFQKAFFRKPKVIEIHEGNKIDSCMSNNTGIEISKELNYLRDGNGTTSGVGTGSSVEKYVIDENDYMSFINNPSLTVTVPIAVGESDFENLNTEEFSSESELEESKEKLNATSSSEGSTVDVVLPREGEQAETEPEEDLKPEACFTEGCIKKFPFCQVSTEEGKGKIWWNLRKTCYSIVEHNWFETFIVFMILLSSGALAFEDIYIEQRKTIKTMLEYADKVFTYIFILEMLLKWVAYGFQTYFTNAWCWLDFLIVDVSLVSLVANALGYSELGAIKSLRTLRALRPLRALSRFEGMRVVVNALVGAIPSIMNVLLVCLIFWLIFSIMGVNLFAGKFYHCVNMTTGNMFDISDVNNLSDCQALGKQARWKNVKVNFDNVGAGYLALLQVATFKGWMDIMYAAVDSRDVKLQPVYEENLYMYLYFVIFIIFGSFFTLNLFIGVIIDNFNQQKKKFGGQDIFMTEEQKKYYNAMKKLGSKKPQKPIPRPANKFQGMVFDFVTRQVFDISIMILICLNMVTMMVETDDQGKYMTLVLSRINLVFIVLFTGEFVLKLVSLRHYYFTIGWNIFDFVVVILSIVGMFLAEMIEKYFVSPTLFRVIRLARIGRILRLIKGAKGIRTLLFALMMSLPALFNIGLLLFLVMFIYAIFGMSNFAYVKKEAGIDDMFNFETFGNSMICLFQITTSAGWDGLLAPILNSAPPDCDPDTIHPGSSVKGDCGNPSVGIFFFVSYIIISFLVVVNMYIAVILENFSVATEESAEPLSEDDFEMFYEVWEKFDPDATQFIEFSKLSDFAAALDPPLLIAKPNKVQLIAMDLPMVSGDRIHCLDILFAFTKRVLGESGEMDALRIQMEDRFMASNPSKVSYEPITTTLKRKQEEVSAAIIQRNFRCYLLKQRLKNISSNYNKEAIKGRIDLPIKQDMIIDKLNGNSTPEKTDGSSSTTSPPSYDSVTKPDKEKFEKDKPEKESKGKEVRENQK

hNav1.7 [3] = target: T2, hNav1.7 (Homo sapiens, UniProt Q15858); conditions: Nav1.7 Use IC50
hNav1.7 [4] = target: T2, hNav1.7; type: cell-based
[5] = IonWorks Quattro, clamped to −110 mV, depolarized to −10 mV, 5 min after compound, n=2, read-out: IWQ Use Nav1.5

T1 sequence (Q14524 whole entry, looked up): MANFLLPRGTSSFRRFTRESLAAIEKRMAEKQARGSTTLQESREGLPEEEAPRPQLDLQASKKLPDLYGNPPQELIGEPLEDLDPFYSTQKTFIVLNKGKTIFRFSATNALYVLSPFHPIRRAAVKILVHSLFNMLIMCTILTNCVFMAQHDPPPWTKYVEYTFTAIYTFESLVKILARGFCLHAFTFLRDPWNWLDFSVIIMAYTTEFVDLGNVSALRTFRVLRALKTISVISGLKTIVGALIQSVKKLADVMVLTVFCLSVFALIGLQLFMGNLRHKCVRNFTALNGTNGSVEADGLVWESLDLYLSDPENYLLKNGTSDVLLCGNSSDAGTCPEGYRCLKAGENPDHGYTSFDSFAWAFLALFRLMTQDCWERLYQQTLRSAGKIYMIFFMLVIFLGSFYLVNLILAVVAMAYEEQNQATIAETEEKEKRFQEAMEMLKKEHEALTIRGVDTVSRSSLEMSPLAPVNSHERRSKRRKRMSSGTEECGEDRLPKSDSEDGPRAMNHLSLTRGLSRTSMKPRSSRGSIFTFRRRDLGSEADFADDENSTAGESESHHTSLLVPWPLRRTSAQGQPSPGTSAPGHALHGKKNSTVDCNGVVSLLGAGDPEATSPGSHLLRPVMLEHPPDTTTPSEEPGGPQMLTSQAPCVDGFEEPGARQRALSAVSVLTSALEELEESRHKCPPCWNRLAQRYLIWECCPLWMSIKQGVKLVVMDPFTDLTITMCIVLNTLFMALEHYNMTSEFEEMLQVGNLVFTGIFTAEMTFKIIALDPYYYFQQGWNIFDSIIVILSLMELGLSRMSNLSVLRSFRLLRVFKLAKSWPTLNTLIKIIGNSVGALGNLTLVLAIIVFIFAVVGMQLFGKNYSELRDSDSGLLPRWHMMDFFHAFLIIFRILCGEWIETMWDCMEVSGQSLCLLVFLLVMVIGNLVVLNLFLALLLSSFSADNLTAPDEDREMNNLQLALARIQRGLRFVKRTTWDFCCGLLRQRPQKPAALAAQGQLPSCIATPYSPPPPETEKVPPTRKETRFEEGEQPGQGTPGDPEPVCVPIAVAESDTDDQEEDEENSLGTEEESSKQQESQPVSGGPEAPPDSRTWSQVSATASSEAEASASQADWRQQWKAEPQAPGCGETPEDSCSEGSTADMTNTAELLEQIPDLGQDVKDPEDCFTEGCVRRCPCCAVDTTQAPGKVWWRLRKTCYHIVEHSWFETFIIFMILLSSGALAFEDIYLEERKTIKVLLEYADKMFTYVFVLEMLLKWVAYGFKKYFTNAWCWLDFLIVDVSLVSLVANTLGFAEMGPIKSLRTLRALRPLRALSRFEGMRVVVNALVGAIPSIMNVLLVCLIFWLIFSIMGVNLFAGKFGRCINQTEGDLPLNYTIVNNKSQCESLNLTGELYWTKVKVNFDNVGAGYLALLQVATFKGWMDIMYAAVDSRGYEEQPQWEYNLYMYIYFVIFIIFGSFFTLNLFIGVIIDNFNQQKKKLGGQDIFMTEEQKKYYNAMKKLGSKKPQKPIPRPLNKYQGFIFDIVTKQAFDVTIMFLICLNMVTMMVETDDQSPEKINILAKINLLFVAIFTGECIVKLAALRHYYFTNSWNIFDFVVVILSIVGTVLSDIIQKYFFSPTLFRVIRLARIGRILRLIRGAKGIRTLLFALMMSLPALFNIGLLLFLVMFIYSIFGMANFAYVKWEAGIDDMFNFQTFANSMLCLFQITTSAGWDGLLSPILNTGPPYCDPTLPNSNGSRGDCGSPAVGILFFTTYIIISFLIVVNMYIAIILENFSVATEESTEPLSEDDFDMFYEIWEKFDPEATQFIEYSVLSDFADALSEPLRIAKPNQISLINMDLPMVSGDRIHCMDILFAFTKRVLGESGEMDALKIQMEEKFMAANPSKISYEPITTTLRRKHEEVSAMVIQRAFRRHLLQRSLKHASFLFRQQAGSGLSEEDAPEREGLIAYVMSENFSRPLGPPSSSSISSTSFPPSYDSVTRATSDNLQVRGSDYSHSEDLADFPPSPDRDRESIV

Row | Structure (SMILES) | IC50 (hNav1.5 [1]; [5]) [µM] | IC50 (hNav1.5 [2]) [µM] | IC50 (hNav1.3) [nM] | IC50 (hNav1.7 [3]) [nM] | IC50 (hNav1.5 [1]; IWQ Use Nav1.5) [µM] | IC50 (hNav1.7 [4]; IonWorks Quattro, clamped to −110 mV, depolarized to −10 mV, 5 min after compound, n=2, read-out: IWQ Use Nav1.7) [nM] | IC50 (hNav1.7 [4]; read-out: IWQ Use Nav1.7) [nM] | IC50 (hNav1.7 [4]) [nM]
1 | CC[C@H](C)[C@@H]1NC(=O)[C@@H]2CSSC[C@@H]3NC(=O)[C@H](C(C)C)NC(=O)[C@H](CC(C)C)NC(=O)[C@H](CC(N)=O)NC(=O)[C@@H]4CCCN4C(=O)[C@H](CCCNC(=N)N)NC(=O)[C@H](CSSC[C@H](NC(=O)[C@@H](N)CC(=O)O)C(=O)N[C@@H](CCC(=O)O)C(=O)NCC(=O)N[C@@H](Cc4ccccc4)C(=O)N[C@@H](CCSC)C(=O)N[C@@H](CCCNC(=N)N)C(=O)N[C@@H](CCCCN)C(=O)N2)NC(=O)[C@H](CSSC[C@@H](C(=O)N[C@@H](CCCCN)C(=O)N[C@@H](Cc2ccc(O)cc2)C(=O)N[C@H](C(=O)N[C@@H](Cc2ccccc2)C(N)=O)C(C)C)NC(=O)[C@H](Cc2c[nH]c4ccccc24)NC(=O)[C@H](CCCCN)NC(=O)[C@H](Cc2cnc[nH]2)NC(=O)[C@H]([C@@H](C)O)NC(=O)[C@H](CCCNC(=N)N)NC(=O)[C@H](CO)NC3=O)NC(=O)[C@H](CCCCN)NC(=O)[C@H](CC(=O)O)NC(=O)[C@H](CC(N)=O)NC(=O)[C@H](CC(=O)O)NC(=O)[C@@H]2CCCN2C1=O [SEQ ID NO: 19] (H-DCEGFMRKCIPDNDKCCRPNLVCSRTHKWCKYVF-NH2; disulfide 2-17, 9-23, 16-30) | 10.5 | > 10 | 830 | 41 |  |  |  | 
2 | CC[C@H](C)[C@@H]1NC(=O)[C@@H]2CSSC[C@@H]3NC(=O)[C@H](C(C)C)NC(=O)[C@H](CC(C)C)NC(=O)[C@H](CC(N)=O)NC(=O)[C@@H]4CCCN4C(=O)[C@H](CCCNC(=N)N)NC(=O)[C@H](CSSC[C@H](NC(=O)[C@@H](N)CC(=O)O)C(=O)N[C@@H](C)C(=O)NCC(=O)N[C@@H](Cc4ccccc4)C(=O)N[C@@H](CCSC)C(=O)N[C@@H](CCCNC(=N)N)C(=O)N[C@@H](CCCCN)C(=O)N2)NC(=O)[C@H](CSSC[C@@H](C(=O)N[C@@H](CCCCN)C(=O)N[C@@H](Cc2ccc(O)cc2)C(=O)N[C@H](C(=O)N[C@@H](Cc2ccccc2)C(N)=O)C(C)C)NC(=O)[C@H](Cc2c[nH]c4ccccc24)NC(=O)[C@H](CCCCN)NC(=O)[C@H](Cc2cnc[nH]2)NC(=O)[C@H]([C@@H](C)O)NC(=O)[C@H](CCCNC(=N)N)NC(=O)[C@H](CO)NC3=O)NC(=O)[C@H](CCCCN)NC(=O)[C@H](CC(=O)O)NC(=O)[C@H](CC(N)=O)NC(=O)[C@H](CC(=O)O)NC(=O)[C@@H]2CCCN2C1=O [SEQ ID NO: 21] (H-DCAGFMRKCIPDNDKCCRPNLVCSRTHKWCKYVF-NH2; disulfide 2-17, 9-23, 16-30) |  | > 10 | 100 | 12 | 19 | 510 |  | 
3 | CC[C@H](C)[C@@H]1NC(=O)[C@@H]2CSSC[C@@H]3NC(=O)[C@H](C(C)C)NC(=O)[C@H](CC(C)C)NC(=O)[C@H](CC(N)=O)NC(=O)[C@@H]4CCCN4C(=O)[C@H](CCCNC(=N)N)NC(=O)[C@H](CSSC[C@H](NC(=O)[C@H](CC(=O)O)NC(=O)[C@H](C)N)C(=O)N[C@@H](CC(C)C)C(=O)NCC(=O)N[C@@H](Cc4ccccc4)C(=O)N[C@@H](CCSC)C(=O)N[C@@H](CCCNC(=N)N)C(=O)N[C@@H](CCCCN)C(=O)N2)NC(=O)[C@H](CSSC[C@@H](C(=O)N[C@@H](CCCCN)C(=O)N[C@@H](Cc2ccc(O)cc2)C(=O)N[C@H](C(=O)N[C@@H](Cc2ccccc2)C(N)=O)C(C)C)NC(=O)[C@H](Cc2c[nH]c4ccccc24)NC(=O)[C@H](CCCCN)NC(=O)[C@H](Cc2c[nH]cn2)NC(=O)[C@H]([C@@H](C)O)NC(=O)[C@H](CCCNC(=N)N)NC(=O)[C@H](CO)NC3=O)NC(=O)[C@H](CCCCN)NC(=O)[C@H](CC(=O)O)NC(=O)[C@H](CC(N)=O)NC(=O)[C@H](CC(=O)O)NC(=O)[C@@H]2CCCN2C1=O [SEQ ID NO: 100] | 19.6 | 10 | 320 | 12 |  |  | 370 | 
4 | CC[C@H](C)[C@@H]1NC(=O)[C@@H]2CSSC[C@@H]3NC(=O)[C@H](C(C)C)NC(=O)[C@H](CC(C)C)NC(=O)[C@H](CC(N)=O)NC(=O)[C@@H]4CCCN4C(=O)[C@H](CCCNC(=N)N)NC(=O)[C@H](CSSC[C@H](NC(=O)[C@@H](N)CC(=O)O)C(=O)N[C@@H](CC(C)C)C(=O)NCC(=O)N[C@@H](Cc4ccccc4)C(=O)N[C@@H](Cc4c[nH]c5ccccc45)C(=O)N[C@@H](CCCNC(=N)N)C(=O)N[C@@H](CCCCN)C(=O)N2)NC(=O)[C@H](CSSC[C@@H](C(=O)N[C@@H](CCCCN)C(=O)N[C@@H](Cc2ccc(O)cc2)C(=O)N[C@H](C(=O)N[C@@H](Cc2ccccc2)C(N)=O)C(C)C)NC(=O)[C@H](Cc2c[nH]c4ccccc24)NC(=O)[C@H](CCCCN)NC(=O)[C@H](Cc2cnc[nH]2)NC(=O)[C@H]([C@@H](C)O)NC(=O)[C@H](CCCNC(=N)N)NC(=O)[C@H](CO)NC3=O)NC(=O)[C@H](CCCCN)NC(=O)[C@H](CC(=O)O)NC(=O)[C@H](CC(N)=O)NC(=O)[C@H](CC(=O)O)NC(=O)[C@@H]2CCCN2C1=O [SEQ ID NO: 170] (H-DCLGFWRKCIPDNDKCCRPNLVCSRTHKWCKYVF-NH2; disulfide 2-17, 9-23, 16-30) | 3.58 | 3.67 | 2 | 22 |  |  |  | 13
5 | CC[C@H](C)[C@@H]1NC(=O)[C@@H]2CSSC[C@@H]3NC(=O)[C@H](C(C)C)NC(=O)[C@H](CC(C)C)NC(=O)[C@H](CC(N)=O)NC(=O)[C@@H]4CCCN4C(=O)[C@H](CCCNC(=N)N)NC(=O)[C@H](CSSC[C@H](NC(=O)[C@@H](N)CC(=O)O)C(=O)N[C@@H](CC(C)C)C(=O)NCC(=O)N[C@@H](C(C)C)C(=O)N[C@@H](CC(C)C)C(=O)N[C@@H](CCCNC(=N)N)C(=O)N[C@@H](CCCCN)C(=O)N2)NC(=O)[C@H](CSSC[C@@H](C(=O)N[C@@H](CCCCN)C(=O)N[C@@H](Cc2ccc(O)cc2)C(=O)N[C@H](C(=O)N[C@@H](Cc2ccccc2)C(N)=O)C(C)C)NC(=O)[C@H](Cc2c[nH]c4ccccc24)NC(=O)[C@H](CCC(=O)O)NC(=O)[C@H](Cc2c[nH]cn2)NC(=O)[C@H]([C@@H](C)O)NC(=O)[C@H](CCCNC(=N)N)NC(=O)[C@H](CO)NC3=O)NC(=O)[C@H](CCCCN)NC(=O)[C@H](CC(=O)O)NC(=O)[C@H](CC(N)=O)NC(=O)[C@H](CC(=O)O)NC(=O)[C@@H]2CCCN2C1=O [[Val5;Leu6;Glu28]GpTx-1(1-34)] (H-DCLGVLRKCIPDNDKCCRPNLVCSRTHEWCKYVF-NH2; disulfide 2-17, 9-23, 16-30) |  | > 10 |  | 86 |  |  |  | 
6 | CC[C@H](C)[C@@H]1NC(=O)[C@@H]2CSSC[C@@H]3NC(=O)[C@H](C(C)C)NC(=O)[C@H](CC(C)C)NC(=O)[C@H](CC(N)=O)NC(=O)[C@@H]4CCCN4C(=O)[C@H](CCCNC(=N)N)NC(=O)[C@H](CSSC[C@H](NC(=O)[C@@H](N)CC(=O)O)C(=O)N[C@@H](CC(C)C)C(=O)NCC(=O)N[C@@H](C(C)C)C(=O)N[C@@H](CC(C)C)C(=O)N[C@@H](CCCNC(=N)N)C(=O)N[C@@H](CCCCN)C(=O)N2)NC(=O)[C@H](CSSC[C@@H](C(=O)N[C@@H](CCCCN)C(=O)N[C@@H](Cc2ccc(O)cc2)C(=O)N[C@H](C(=O)N[C@@H](Cc2ccccc2)C(N)=O)C(C)C)NC(=O)[C@H](Cc2c[nH]c4ccccc24)NC(=O)[C@H](CCCCN)NC(=O)[C@H](Cc2c[nH]cn2)NC(=O)[C@H]([C@@H](C)O)NC(=O)[C@H](CCCNC(=N)N)NC(=O)[C@H](CO)NC3=O)NC(=O)[C@H](CCCCN)NC(=O)[C@H](CC(=O)O)NC(=O)[C@H](CC(N)=O)NC(=O)[C@H](CC(=O)O)NC(=O)[C@@H]2CCCN2C1=O [[Val5;Leu6]GpTx-1(1-34)] (H-DCLGVLRKCIPDNDKCCRPNLVCSRTHKWCKYVF-NH2; disulfide 2-17, 9-23, 16-30) |  | > 10 |  | 200 |  |  |  | 
